# Target: Ec YeaWX lysate (Escherichia coli (strain K12), UniProt P0ABR7)
# Experiment: Inhibition of formation of TMA from carnitine in Ec YeaWX lysate (d9-carnitine to d9-TMA, LC-MS/MS)
# Format: biochemical
# Conditions: conversion of carnitine to TMA; Ec YeaWX lysate 2.0 mg/mL protein, 250 μM NADPH, 50 μM d9-carnitine chloride, 37° C., two hours; read-out: TMA Inhibition (IC50, mol/L)
# Excerpt: EXAMPLE 3 provides an exemplary assay for identifying and characterizing compounds from Formula (I), or Formula (II), that inhibit the formation of TMA from carnitine.
# Escherichia coli BL21*DE3::pET30a-Ec yeaWX #1 (Ec YeaWX) strain was generated as described below. The contiguous Escherichia coli coding sequence yeaW (equivalent to uniprot ID P0ABR7.1 (YeaW) (SEQ ID NO: 2)) and yeaX (equivalent to uniprot ID P76254.1 (YeaX) (SEQ ID NO: 3)) were PCR amplified from Escherichia coli strain K-12 substr. BW25113 genomic DNA. PCR primers (YeaW_Nde I_fwd2-SEQ ID NO: 4; YeaX_rev2-SEQ ID NO: 5) were designed to create a 5′ NdeI restriction site including the ATG start codon of yeaW and create a PstI restriction site just 3′ of the yeaX TAG stop codon.
# The amplicon was restricted and cloned into the NdeI and PstI sites of the plasmid pET30a downstream of the inducible T7 promoter. A blast search of the resulting cloned amplicon DNA sequence (SEQ ID NO: 1) corresponded to nucleotide range 1884665 to 1886810 of Escherichia coli str. K-12 substr. MG1655 (NCBI Accession #NC_000913). The construct was transformed and grown in E. coli BL21(DE3) and the recombinant yeaWX overexpressed by addition of isopropyl β-D-1-thiogalactopyranoside (IPTG).
# The bacteria were grown aerobically in 50 mL LB broth (Difco #244620; 10 g/L Tryptone, 5 g/L yeast extract, 10 g/L NaCl, 50 μg/mL kanamycin), in a 500 mL Erlenmeyer flask. The cultures were inoculated from glycerol stock of BL21*DE3::pET30a-Ec yeaWX #1 strain. Strains were cultured all day at 37° C. with 250 rpm shaking. Two 300 mL Minimal M9 Medium (6 g/L Na2HPO4, 3 g/L KH2PO4, 0.5 g/L NaCl, 1 g/L NH4Cl, 0.1 mM CaCl2, 1 mM MgSO4, 0.2% Dextrose, 1 mg/L Thiamine, 50 μg/mL kanamycin), in 1 L Erlenmeyer flasks, were inoculated with 5 mL of the LB broth day culture and cultured overnight at 37° C. with 250 rpm shaking. The overnight cultures were used to inoculate twelve 1 L cultures of Minimal M9 media in 2.8 L fluted Erlenmeyer flasks to an OD 600 nm of 0.05 (typically approximately 28 mLs), which were grown at 37° C. with 250 rpm shaking until an OD600 of approximately 0.4 was reached. Expression of YeaWX was induced with 1 mM IPTG and the induced cultures were further grown overnight at 37° C. with 250 rpm shaking. The biomass was pelleted by centrifugation at 6000×g for 12 minutes at 4° C. The cell pellet was suspended in 240 mL of ice-cold 1× Phosphate Buffered Saline (Ca^2+ and Mg^2+ free). Ninety micrograms of Lysozyme (Sigma #L6876 Lot #SLBG8654V; Sigma-Aldrich Corp., St. Louis, Mo.) was added and incubated with 320 rpm shaking for 30 minutes at 4° C. Lysis was achieved via French press with a 4° C. prechilled 1″ diameter chamber at 1000 psi (high ratio; internal PSI equivalent ˜16000). The lysate was centrifuged at 6,000×g for 12 minutes at 4° C. to pellet extra debris. Glycerol was added to the centrifuged lysate supernatant at a final concentration of 15% A protein concentration of the centrifuged lysate supernatant was determined by a BCA Protein Assay Kit (Pierce #23225), typically in the 2.5 to 4.5 mg/ml range. The centrifuged Ec YeaWX lysate supernatant was aliquoted into 20 mL volumes and stored frozen at −80° C.
# Ec YeaWX lysate was diluted to 2.0 mg/mL protein with 1× Dulbecco's phosphate buffered saline (DPBS) plus 15% glycerol. Nicotinamide adenine dinucleotide phosphate (NADPH) was added to 250 μM. […]
# Sequence of Ec YeaWX lysate (P0ABR7 whole entry): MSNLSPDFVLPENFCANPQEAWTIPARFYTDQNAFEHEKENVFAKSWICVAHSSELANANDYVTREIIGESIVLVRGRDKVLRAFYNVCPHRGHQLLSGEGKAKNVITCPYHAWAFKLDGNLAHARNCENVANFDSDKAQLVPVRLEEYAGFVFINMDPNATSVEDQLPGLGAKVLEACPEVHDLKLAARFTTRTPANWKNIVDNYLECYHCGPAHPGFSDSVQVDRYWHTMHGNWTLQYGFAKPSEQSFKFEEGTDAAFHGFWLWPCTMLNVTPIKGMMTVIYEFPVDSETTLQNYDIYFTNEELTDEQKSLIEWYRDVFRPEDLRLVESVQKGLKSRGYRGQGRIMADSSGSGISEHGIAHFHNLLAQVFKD
row,Compound,IC50 [mol/L]
1,"CC[N+](C)(CC)CCCN=C=S [Compound 2, 3-Isothiocyanato-N,N-diethyl-N-methylpropanaminium iodide]",0.0002
2,"CCOC(=O)C(=O)C[N+](C)(C)CCN=C=S [Compound 5, N-(Ethoxypropyl-2,3-dione)-2-isothiocyanato-N,N-dimethylethan-1-aminium bromide]",0.00551
3,CCOC(=O)C(=O)C[N+](C)(C)CCCN=C=S [Compound 6],0.0002
4,"CC[N+](CC)(CCBr)CCCN=C=S [Compound 7, N-(2-Bromoethyl)-3-isothiocyanato-N,N-diethylpropan-1-aminium triflate]",0.00017
5,"CC[N+](CC)(CC#N)CCCN=C=S [Compound 9, N-Cyanomethyl-3-isothiocyanato-N,N-diethylpropan-1-aminium bromide]",0.0006

# — patent US10213407B2, “Compounds and methods for inhibiting production of trimethylamine” (The Procter & Gamble Company, priority 2015, dated 2019)
